{"source": "paper PMC10794626", "about": "“Investigations of potential non-amino acid SNAT2 inhibitors” (Frontiers in Pharmacology, 2024)", "key": {"SNAT2": {"target": "T1, SNAT2 (Homo sapiens, UniProt Q96QD8)", "T1 construct": "endogenous in cells; host or cells: PC-3 cells (ECACC 90,112,714), 24 h in hyperosmotic medium", "T1 sequence (Q96QD8 1-506)": "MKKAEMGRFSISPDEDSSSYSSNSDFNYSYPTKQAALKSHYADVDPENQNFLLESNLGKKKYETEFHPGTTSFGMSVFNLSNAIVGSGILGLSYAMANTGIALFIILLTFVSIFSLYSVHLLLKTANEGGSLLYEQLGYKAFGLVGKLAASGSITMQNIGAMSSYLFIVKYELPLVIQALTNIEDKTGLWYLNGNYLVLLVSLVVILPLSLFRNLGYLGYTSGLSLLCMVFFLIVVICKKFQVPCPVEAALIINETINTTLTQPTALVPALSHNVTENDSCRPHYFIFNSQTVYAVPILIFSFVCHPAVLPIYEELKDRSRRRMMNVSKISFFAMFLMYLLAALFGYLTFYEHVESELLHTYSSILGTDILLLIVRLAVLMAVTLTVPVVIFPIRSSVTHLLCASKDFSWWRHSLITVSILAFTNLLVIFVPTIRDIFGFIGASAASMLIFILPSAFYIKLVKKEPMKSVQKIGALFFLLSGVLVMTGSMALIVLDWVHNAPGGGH", "experiment": "3H-Gly uptake in hyperosmotically treated PC-3 cells", "format": "cell-based", "details": "for Inhibition of 3H-Gly uptake (overall finding, in words): concentration not given, 54F at the highest soluble concentration", "experimental": "PC-3 cells (ECACC 90,112,714) were obtained from the European Collection of Authenticated Cell Cultures (ECACC; UK Health Security Agency, Salisbury, United Kingdom) and were received in passage 31. […] The cells were kept incubated at 37°C in an atmosphere of 5% CO2 and 94%–97% relative humidity and the culture medium was changed every 2–3 days. For hyperosmotic stimulation, PC-3 cells were incubated in hyperosmotic media for 24 h before the uptake experiment. The hyperosmotic media was made by supplementing normal isoosmotic culture medium with 200 mM raffinose to reach an osmolality of approximately 500 mOsm ⋅ kg^−1. For uptake studies, the PC-3 cells were seeded in 24-well plates (area of 1.9 cm^2) at a density of 1.5 ⋅ 10^5 cells ⋅ cm^−2 2 days before the experiment. Experiments were performed using PC-3 cells in passages 2–15 after thawing.\nHyperosmotically treated PC-3 cells were used to study the uptake of radiolabeled ^3H-Gly. Solutions were prepared using Hanks Balanced Salt Solution (HBSS), which consisted of the following (mM): CaCl2, 1.26; MgCl2, 0.49; MgSO4, 0.41; KCl, 5.33; KH2PO4, 0.44; NaCl, 138; Na2HPO4, 0.34; D-glucose, 5.56; NaHCO3, 4.17. HBSS was supplemented with 10 mM HEPES and adjusted to pH 7.4 ± 0.01 (HBSS*) with […]. Donor solutions contained 0.5 μCi/mL of ^3H-glycine (11.1 nM). MMTC was also investigated at a substrate concentration of 100 µM Gly, which was achieved by the addition of unlabeled Gly to donor solutions containing 0.5 μCi/mL of ^3H-Gly (11.1 nM). […] Before starting the uptake experiment the media was aspirated, and the cells were preincubated in HBSS* for 15 min at 37°C and 220 rpm. To initiate the uptake study, the buffer was removed and 300 µL of prewarmed (37°C) donor solution was added to the cells and incubated at 37°C. During incubation, the cells were circularly rotated at 220 rpm using a Talboys incubating microplate shaker (Troemner, Thorofare, NJ, United States). After 5 min, the uptake experiment was terminated by removing the buffer solutions by vacuum suction, and the cells were washed thrice with 500 µL ice-cold HBSS. […] The cells were then detached by applying 200 µL of 0.1% Triton-X 100 for at least 25 min and cells were then transferred to scintillation vials along with 2 mL of Ultima Gold scintillation fluid. The vials were vortexed before being analyzed by a liquid scintillation counter, which was a TriCarb 4910 TR from PerkinElmer (Waltham, MA, United States).\n^3H-Gly uptake values were normalized to the control uptake of each experiment, but without subtracting any background uptake.\nStatistical differences were tested in GraphPad Prism 9.4.1 using one-way ANOVA followed by Dunnett’s multiple comparison test. The significance level used was p < 0.05 (*). Data are represented as means ± SEM from independent cell passages (n) unless otherwise stated."}, "[1]": {"experiment": "Equilibrium solubility in HBSS* buffer (HPLC-UV)", "format": "physicochemical", "details": "HEPES buffered HBSS (HBSS*) buffer, pH 7.4, 37°C, mean ± SD, N = 3", "experimental": "The mobile phases (MP) consisted of ultra-pure water containing 0.1% trifluoroacetic acid (MP A) and acetonitrile containing 0.1% trifluoroacetic acid (MP B). A reversed-phase column (Nova-Pak® C18, 4 μm, 3.9 × 150 mm, Waters, Milford, MA, United States) was applied and maintained at 22°C. The flow was constant at 0.6 mL ⋅ min^−1 with an isocratic elution of 40% MP A and 60% MP B for 53B, 55B, and 57B, an isocratic elution of 30% MP A and 70% MP B with a constant flow of 0.8 mL ⋅ min^−1 for MMTC, and an isocratic elution of 60% MP A and 40% MP B with a constant flow of 0.6 mL ⋅ min^−1 for […]. Samples of 20 μL, maintained at 25°C, were injected and all five compounds were measured at 270 nm. […] The calibration curves ranged from 5 to 30 µM for MMTC and 53B and from 7.5 to 30 µM for 54F, 55B, and 57B. Linear regression of peak height as a function of concentration was analyzed using GraphPad Prism 9.4.1.\nThe 5 mL vials were then left on a rotator covered in aluminum foil at 37°C. After 72 h rotation, the solutions were equally distributed into three 1.5 mL microtubes, to do triplicate measurements, and centrifuged at 10,000 g at room temperature for 10 min. The supernatant was removed and for 53B, 54F, and 57B the supernatant was diluted 1:2 with their respective mobile phases. For MMTC and 55B, the supernatant was diluted 2:1 with their respective mobile phase. The diluted samples were analyzed by HPLC-UV as described in Section 2.4.\nFor the quantification of MMTC, 53B, 54F, 55B, and 57B a linear regression was made of each of the calibration curves, where the known concentrations were plotted as a function of the peak height."}, "[2]": {"experiment": "Kinetic solubility of MMTC diluted from DMSO stock into HBSS*", "format": "physicochemical", "details": "HBSS* buffer, 37°C", "experimental": "Quantification of compounds was performed using a Waters 2695 HPLC system (Waters Corporation, MA, United States) connected to a Waters 2487 Dual λ Absorbance Detector (Waters Corporation, MA, United States). The mobile phases (MP) consisted of ultra-pure water containing 0.1% trifluoroacetic acid (MP A) and acetonitrile containing 0.1% trifluoroacetic acid (MP B). A reversed-phase column (Nova-Pak® C18, 4 μm, 3.9 × 150 mm, Waters, Milford, MA, United States) was applied and maintained at 22°C. The flow was constant at 0.6 mL ⋅ min^−1 with an isocratic elution of 40% MP A and 60% MP B for 53B, 55B, and 57B, an isocratic elution of 30% MP A and 70% MP B with a constant flow of 0.8 mL ⋅ min^−1 for MMTC, and an isocratic elution of 60% MP A and 40% MP B with a constant flow of 0.6 mL ⋅ min^−1 for […]. Samples of 20 μL, maintained at 25°C, were injected and all five compounds were measured at 270 nm. MMTC, 53B, 54F, 55B, and 57B had retention times of 4.00, 2.47, 5.14, 2.92, and 4.00 min, respectively. […] Linear regression of peak height as a function of concentration was analyzed using GraphPad Prism 9.4.1. […]\nThe 5 mL vials were then left on a rotator covered in aluminum foil at 37°C. […] The diluted samples were analyzed by HPLC-UV as described in Section 2.4. […]"}, "ASCT2": {"test_system": "ASCT2", "parameters": "method as in Schulte et al., 2016; Schulte et al., 2018", "details": "HEK293 cells, ref Schulte et al., 2016, 2018; cited from earlier work"}, "PC-3 cells": {"test_system": "PC-3 cells", "parameters": "method as in Nielsen et al., 2022", "details": "ref Nielsen et al., 2022, read-out: Km of uptake; cited from earlier work"}, "[3]": {"details": "at soluble conditions / within soluble concentration range"}}, "note": "Where a name gives a salt, the structure may show the parent alone. Read-outs that look alike come from different tables or passages of the source.", "data": [{"smiles": "C[N+](C)(C)CC(=O)O", "note": "[betaine]", "values": [{"measurement": "Inhibition of Gly uptake (in words)", "setting": "SNAT2; 50 mM betaine, 20 mM Gln, Figure 1", "value": "almost completely inhibits"}, {"measurement": "Inhibition of 3H-Gly uptake", "setting": "SNAT2; 50 mM, 11.1 nM 3H-Gly, 5 min", "value": "around 86%"}]}, {"smiles": "COC(=O)c1ccccc1NC(=O)Nc1c(-c2ccncc2)[nH]c2ccc(Cl)cc12", "note": "[55B]", "values": [{"measurement": "solubility thermodynamic", "setting": "[1]; aqueous buffer", "value": "13.2 ± 1.6", "unit": "µM"}, {"measurement": "solubility thermodynamic", "setting": "[1]", "value": 13.3, "unit": "µM"}, {"measurement": "Inhibition of 3H-Gly uptake", "setting": "SNAT2; [3]", "value": "no inhibition"}]}, {"smiles": "Cc1ccc(S(=O)(=O)N(C)c2ccsc2C(=O)NCc2ccccc2C(F)(F)F)cc1", "note": "[MMTC, 3-(N-methyl (4-methylphenyl)sulfonamido)-N-(2-trifluoromethylbenzyl)thiophene-2-carboxamide]", "values": [{"measurement": "solubility kinetic", "setting": "[2]; aqueous buffer, kinetic from dmso stock, within 15 min, remained stable for at least 45 min, read-out: MMTC concentration after dilution of DMSO stock to 10 µM in HBSS*", "value": "~2.5", "unit": "µM"}, {"measurement": "solubility kinetic", "setting": "[2]; pH 7.4, HBSS*, during the course of the uptake study, read-out: Kinetic solubility", "value": "2.5 to 10", "unit": "µM"}, {"measurement": "solubility thermodynamic", "setting": "[1]; aqueous buffer", "value": "< 1.8", "unit": "µM"}, {"measurement": "Inhibition of Gly uptake", "setting": "SNAT2; 1 µM MMTC, substrate concentration 100 µM Gly, Supplementary Figure S1, n = 1", "value": "does not inhibit"}, {"measurement": "Inhibition of SNAT2-mediated 3H-Gly uptake", "setting": "SNAT2; 1 µM compound, 11.1 nM 3H-Gly, 5 min, 37°C, 1% DMSO", "value": "no inhibition"}, {"measurement": "Inhibition of SNAT2-mediated 3H-Gly uptake", "setting": "SNAT2; 5 µM compound, 11.1 nM 3H-Gly, 5 min, 37°C, 1% DMSO", "value": "no inhibition"}, {"measurement": "Inhibition of 3H-Gly uptake (overall finding, in words)", "setting": "SNAT2", "value": "did not inhibit"}]}, {"smiles": "Cc1cccc(COc2ccccc2CN(CC[C@H](N)C(=O)O)Cc2ccccc2OCc2cccc(C)c2)c1", "note": "[V-9302]", "values": [{"measurement": "IC50", "setting": "ASCT2", "value": "7 to 10", "unit": "µM"}]}, {"smiles": "NCC(=O)O", "note": "[Gly, glycine]", "values": [{"measurement": "Km", "setting": "PC-3 cells", "value": "750 ± 160", "unit": "µM"}]}, {"smiles": "Cc1nc(-n2nc(C)c(Cc3ccc(Cl)cc3)c2C)sc1C(=O)N1CCN(C)CC1", "note": "[57B]", "values": [{"measurement": "solubility thermodynamic", "setting": "[1]; aqueous buffer", "value": "27.5 ± 1", "unit": "µM"}, {"measurement": "Inhibition of 3H-Gly uptake", "setting": "SNAT2; [3]", "value": "no inhibition"}]}, {"smiles": "CC(C)c1ccc(S(=O)(=O)Nc2ccc3nc(S(C)(=O)=O)sc3c2)cc1", "note": "[54F]", "values": [{"measurement": "solubility thermodynamic", "setting": "[1]; aqueous buffer", "value": "56.1 ± 0.5", "unit": "µM"}, {"measurement": "Inhibition of 3H-Gly uptake compared to control", "setting": "SNAT2; 50 µM compound, 11.1 nM 3H-Gly, 5 min, 37°C, 1% DMSO", "value": "approximately 20%"}, {"measurement": "Inhibition of 3H-Gly uptake (overall finding, in words)", "setting": "SNAT2", "value": "significant, but small, inhibition"}]}, {"smiles": "Cc1ccccc1Nc1c(-c2ccc(N3CCOCC3)cc2)nc2cnccn12", "note": "[53B]", "values": [{"measurement": "solubility thermodynamic", "setting": "[1]; aqueous buffer", "value": "24.9 ± 0.8", "unit": "µM"}, {"measurement": "Inhibition of 3H-Gly uptake", "setting": "SNAT2; [3]", "value": "no inhibition"}]}, {"smiles": "O=C(O)[C@@H]1CCCN1", "note": "[Pro]", "values": [{"measurement": "Km", "setting": "PC-3 cells", "value": "780 ± 100", "unit": "µM"}]}, {"smiles": "N=C(N)NCCC[C@H](N)C(=O)O", "note": "[L-Arg, L-arginine hydrochloride]", "values": [{"measurement": "Effect on 3H-Gly uptake", "setting": "SNAT2; 20 mM, 11.1 nM 3H-Gly, 5 min", "value": "did not affect the uptake significantly"}]}]}
